Tests used:
CUL4B-Top1 interaction = target: T1, CUL4B-Top1 interaction (Homo sapiens, UniProt P11387); experiment: Co-immunoprecipitation of CUL4B and Top1 in BT474 cells; type: cell-based; details: BT474 cells in the presence of CPT, crosslinked
T1 construct: Top1 was co-immunoprecipitated with CUL4B in the presence of CPT; host or cells: BT474 human breast cancer cells
Experimental: BT474 cells were infected with lentiviral shCUL4B, shCUL4A or control non-targeting shRNA, and selected for stable CUL4B^k/d or CUL4A^k/d cells upon treatment with puromycin. Following treatment with CPT (50 μM) for 1 hour, cells were replenished with CPT-free fresh medium and incubated at 37° C. for 30 minutes. Top1 degradation was assessed by immunoblotting with an anti-Top1 antibody. Levels of α-tubulin were measured as a loading control. B) Association of CUL4B with Top1 following CPT treatment. BT474 cells were treated with proteosome inhibitor MG132 (15 μM) for 3 hours, and were subjected to crosslinking with 0.2 mM Dithiobis[succinimidyl propionate](DSP) for the last 30 min at room temperature. Cell lysates were prepared, and immunoprecipitated with the anti-Top1 or anti-CUL4B antibodies, and then immunoblotted using antibodies against CUL4B or Top1, respectively. […] Top1 degradation was assessed by immunoblotting with the anti-Top1 antibody. Levels of α-tubulin were measured as a loading control. […] Statistical significance in cellular response to CPT between control BT474 cells and CUL4A^k/d or CUL4B^k/d cells were assessed by a two-tailed unpaired student t-test (***: p<0.001). […] Statistical significance in cellular response to camptothecin between control cells and CUL4A^k/d or CUL4B^k/d BT474 cells are assessed by student's t-test. […]

γH2AX in BT474 cells = experiment: Western blot analysis for γH2AX; type: cell-based, Human; details: CPT-treated BT474 cells with CUL4B silencing via shRNA vs control; 2 μM CPT
Experimental: FIG. 3. CUL4B^k/d BT474 cells are susceptible to CPT-induced DNA damage. A) Persistent DNA damage in CPT-treated BT474-CUL4B^k/d cells. Control or CUL4B^k/d BT474 cells were treated with 2 μM of CPT for the indicated time periods, replenished with CPT-free fresh medium, incubated at 37° C. for 1 hour to repair DNA damage, and subjected to immunoblotting with the anti-γH2AX antibody to determine the extent of DNA damage. B) Immunofluorescent detection of γH2AX foci in control or CUL4B^k/d BT474 cells following CPT treatment. BT474 cells were infected with lentiviral control shRNA (shCtrl) or shCUL4B, treated with 2 μM CPT for 2 hours and replenished with CPT-free fresh medium, incubated at 37° C. for 1 hour to repair DNA damage. γH2AX foci were detected by immunofluorescent assay with the rabbit anti-γH2AX antibody and goat anti-rabbit secondary antibody conjugated with cy3 (red). Nuclei were stained with DAPI (blue). C, D) Percentage of γH2AX-positive cells and number of persistent γH2AX foci in a total of 300 γH2AX-positive cells. All values were presented as mean±S.E. Statistical significance was assessed by a two-tailed unpaired Student t-test (***: p<0.001). […]

T47D cells = experiment: XTT assay for cytotoxic response to camptothecin, T47D; type: cell-based, Human
[1] = system: γH2AX foci in BT474 cells; experiment: Immunofluorescent detection of γH2AX foci; type: cell-based, Human; details: 2 μM CPT 2 hours, 1 hour repair
Experimental: FIG. 3. CUL4B^k/d BT474 cells are susceptible to CPT-induced DNA damage. A) Persistent DNA damage in CPT-treated BT474-CUL4B^k/d cells. Control or CUL4B^k/d BT474 cells were treated with 2 μM of CPT for the indicated time periods, replenished with CPT-free fresh medium, incubated at 37° C. for 1 hour to repair DNA damage, and subjected to immunoblotting with the anti-γH2AX antibody to determine the extent of DNA damage. B) Immunofluorescent detection of γH2AX foci in control or CUL4B^k/d BT474 cells following CPT treatment. BT474 cells were infected with lentiviral control shRNA (shCtrl) or shCUL4B, treated with 2 μM CPT for 2 hours and replenished with CPT-free fresh medium, incubated at 37° C. for 1 hour to repair DNA damage. γH2AX foci were detected by immunofluorescent assay with the rabbit anti-γH2AX antibody and goat anti-rabbit secondary antibody conjugated with cy3 (red). Nuclei were stained with DAPI (blue). C, D) Percentage of γH2AX-positive cells and number of persistent γH2AX foci in a total of 300 γH2AX-positive cells. All values were presented as mean±S.E. Statistical significance was assessed by a two-tailed unpaired Student t-test (***: p<0.001).
Cells were initially grown on chamber slides. […] After PBS washes, cells were mounted with FluroSave™ Reagent (Calbiochem), and visualized under the fluorescence microscope, and images were captured via camera.

BT474 cells = experiment: XTT Cell Proliferation Assay, growth rate of BT474 cells in vitro; type: cell-based, Human; details: knockdown cells vs control, no drug
Experimental: FIG. 5. CUL4B inactivation sensitized BT474 xenograft tumors to topotecan. Stable TGL-BT474 cells (BT474 cells stably expressing GFP-luciferase reporter) were established by retroviral transduction and FACS sorting. The resulting TGL-BT474 cells were infected with recombinant lentiviruses expressing non-targeting shCtrl, shCUL4A or shCUL4B, followed by selection of infected cells with 4 μg/ml puromycine for one week. A) Knockdown of endogenous CUL4A and 4B were verified by immunoblotting. […] Statistical significance in tumor burden between control and CUL4A^k/d or CUL4B^k/d xenograph are assessed by a two-tailed unpaired student t-test (***: p<0.001). […] The same number of control, CUL4A^k/d and CUL4B^k/d BT474 cells were seeded to 96-well plates and cell proliferation was measured using the XTT Cell Proliferation Assay Kit. […] Statistical significance in cellular rate between control cells and CUL4A^k/d or CUL4B^k/d cells are assessed by student's t-test. […] 1×10^7 of control, CUL4A^k/d or CUL4B^k/d TGL-BT474 cells were injected subcutaneously in the right flank of each mouse of athymic Nu/J nude mice, and tumor burden was measured by bioluminescent imaging (E). On the 22nd day, tumors were collected, and the weight of exercised tumors was measured after mice were sacrificed (F).

T1 sequence (P11387 2-765 limits assumed): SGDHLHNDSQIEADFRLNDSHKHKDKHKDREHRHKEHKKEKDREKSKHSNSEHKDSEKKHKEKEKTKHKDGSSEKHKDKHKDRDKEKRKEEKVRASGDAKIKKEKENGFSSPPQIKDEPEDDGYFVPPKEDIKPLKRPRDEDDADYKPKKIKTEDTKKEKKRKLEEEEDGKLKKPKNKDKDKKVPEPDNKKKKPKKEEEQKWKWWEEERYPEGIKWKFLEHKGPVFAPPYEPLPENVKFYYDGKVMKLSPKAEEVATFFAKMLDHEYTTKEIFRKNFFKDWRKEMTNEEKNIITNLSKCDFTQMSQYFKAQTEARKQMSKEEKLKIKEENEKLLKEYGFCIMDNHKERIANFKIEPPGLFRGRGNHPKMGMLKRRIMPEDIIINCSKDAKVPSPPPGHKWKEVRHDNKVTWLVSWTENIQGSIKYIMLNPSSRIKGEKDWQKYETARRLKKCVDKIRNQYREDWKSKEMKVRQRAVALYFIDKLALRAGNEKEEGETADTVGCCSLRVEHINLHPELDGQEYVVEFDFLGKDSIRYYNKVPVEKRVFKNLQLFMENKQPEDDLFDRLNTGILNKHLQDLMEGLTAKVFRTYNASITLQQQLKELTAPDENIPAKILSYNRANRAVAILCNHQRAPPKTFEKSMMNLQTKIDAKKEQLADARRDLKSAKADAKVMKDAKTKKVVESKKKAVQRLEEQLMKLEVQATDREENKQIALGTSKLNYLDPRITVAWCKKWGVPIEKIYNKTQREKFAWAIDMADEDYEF
T1 sequence (Q13620 whole entry partner): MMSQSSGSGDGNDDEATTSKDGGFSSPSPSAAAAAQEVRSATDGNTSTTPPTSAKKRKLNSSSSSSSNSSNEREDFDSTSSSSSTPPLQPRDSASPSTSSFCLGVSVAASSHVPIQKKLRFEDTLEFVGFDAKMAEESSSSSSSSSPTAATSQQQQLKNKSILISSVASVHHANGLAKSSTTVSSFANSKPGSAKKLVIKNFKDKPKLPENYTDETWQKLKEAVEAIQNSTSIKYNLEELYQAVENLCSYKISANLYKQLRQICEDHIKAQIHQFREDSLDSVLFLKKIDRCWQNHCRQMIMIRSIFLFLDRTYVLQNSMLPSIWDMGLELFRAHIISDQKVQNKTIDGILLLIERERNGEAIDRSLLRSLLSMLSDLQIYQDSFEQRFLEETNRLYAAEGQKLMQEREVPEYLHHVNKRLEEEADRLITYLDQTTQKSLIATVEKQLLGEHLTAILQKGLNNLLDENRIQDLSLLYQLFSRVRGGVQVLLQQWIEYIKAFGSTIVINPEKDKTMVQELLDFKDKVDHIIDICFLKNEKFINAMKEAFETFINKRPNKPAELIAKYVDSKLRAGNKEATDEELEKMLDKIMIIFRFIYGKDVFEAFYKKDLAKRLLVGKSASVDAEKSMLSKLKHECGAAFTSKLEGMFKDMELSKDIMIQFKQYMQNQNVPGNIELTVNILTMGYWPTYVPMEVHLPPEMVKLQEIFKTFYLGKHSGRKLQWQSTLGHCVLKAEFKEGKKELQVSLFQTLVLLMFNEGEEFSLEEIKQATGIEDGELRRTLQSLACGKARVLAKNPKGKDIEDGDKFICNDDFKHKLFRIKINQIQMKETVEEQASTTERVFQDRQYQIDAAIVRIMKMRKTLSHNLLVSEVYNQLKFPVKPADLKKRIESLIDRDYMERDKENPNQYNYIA

Row | Compound | Association of Top1 with CUL4B (CUL4B-Top1 interaction) | Levels of γH2AX (Western blotting) (γH2AX in BT474 cells) | Survival rate of CPT-treated cells (T47D cells; T47D cells with knockdown of CUL4A) | Cytotoxic killing by CPT (cell survival) (T47D cells; T47D cells with knockdown of CUL4B, CPT three days) | Cells with accumulation of γH2AX foci ([1]; CPT-treated CUL4B k/d BT474 cells) [%] | Cells with accumulation of γH2AX foci ([1]; CPT-treated control BT474 cells) [%] | Growth rate of cultured BT474 cells in vitro (BT474 cells)
1 | CC[C@@]1(O)C(=O)OCc2c1cc1n(c2=O)Cc2cc3ccccc3nc2-1 [CPT, (S)-4-ethyl-4-hydroxy-1H-pyrano[3′,4′:6,7]indolizino[1,2-b]quinoline-3,14-(4H, 12H)-dione] | co-immunoprecipitated | elevated | no effect | sensitized | 50 | 20 | –
2 | shCUL4B: lentiviral shRNA CUL4B sequence purchased from Sigma Aldrich, reduces CUL4B expression (CCGGGCAGAATTTAAAGAGGGTAAACTCGAGTTTACCCTCTTTAAATTCTGCTTTTT) | – | – | – | – | – | – | no effect

From patent US10106853B2, “CUL4B as predictive biomarker for cancer treatment” (CORNELL UNIVERSITY, priority 2012, dated 2018)
